In patent US6448265B1, “Pyrazoles and pyrazolopyrimidines having CRF antagonistic activity” (Pfizer, Inc., priority 1992, dated 2002):

Row | melting point [°C] | SMILES
1 | 200 to 202 | COc1ccccc1C(=O)c1c(SC)nn(-c2c(Cl)cc(Cl)cc2Cl)c1N [Example 3, 5-Amino-4-(2-methoxybenzoyl)-3-methylthio-1-(2,4,6-trichlorophenyl)pyrazole]
2 | 222 | Cc1nn(-c2c(Cl)cc(Cl)cc2Cl)c(N)c1C(=O)c1ccccc1Cl [Example 4, 5-Amino-4-(2-chlorobenzoyl)-3-methyl-1-(2,4,6-trichlorophenyl) pyrazole]
